According to ChEMBL document CHEMBL6109063, “Discovery of dual PARP/NAMPT inhibitors for the treatment of BRCA wild-type triple-negative breast cancer” (Bioorg Med Chem Lett, 2025):
pIC50: −log10 of the molar value. One block for each compound: values may come before it. Calls of active or inactive are those of the source. The calls are words filed in the database; no cut-off is given here.

Key:
MDA-MB-231 [1] = experiment: Synergistic anti-proliferative activity against human MDA-MB-231 cells harboring wild-type BRCA assessed as combination index at 10 to 40 uM in presence of olaparib; assay type: functional; settings: dose 10-40 µM
MDA-MB-231 [2] = experiment: Induction of apoptosis in human MDA-MB-231 cells harboring wild-type BRCA assessed as viable cells at 15 uM incubated for 48 hrs by Annexin V-FITC/PI staining based flow cytometry analysis (reference value: 94.3%); assay type: functional; settings: read-out: Activity
MDA-MB-231 [3] = experiment: Induction of apoptosis in human MDA-MB-231 cells harboring wild-type BRCA assessed as early apoptotic cells at 15 uM incubated for 48 hrs by Annexin V-FITC/PI staining based flow cytometry analysis (reference value: 1.60%); assay type: functional
MDA-MB-231 [4] = experiment: Induction of apoptosis in human MDA-MB-231 cells harboring wild-type BRCA assessed as late apoptotic cells at 15 uM incubated for 48 hrs by Annexin V-FITC/PI staining based flow cytometry analysis (reference value: 2.38%); assay type: functional
MDA-MB-231 [5] = experiment: Induction of apoptosis in human MDA-MB-231 cells harboring wild-type BRCA assessed as necrotic cells at 15 uM incubated for 48 hrs by Annexin V-FITC/PI staining based flow cytometry analysis (reference value: 1.68%); assay type: functional
MDA-MB-231 [6] = experiment: Induction of apoptosis in human MDA-MB-231 cells harboring wild-type BRCA assessed as viable cells at 15 uM incubated for 48 hrs in presence of Olaparib by Annexin V-FITC/PI staining based flow cytometry analysis (reference value: 94.3%); assay type: functional; settings: read-out: Activity
MDA-MB-231 [7] = experiment: Induction of apoptosis in human MDA-MB-231 cells harboring wild-type BRCA assessed as early apoptotic cells at 15 uM incubated for 48 hrs in presence of Olaparib by Annexin V-FITC/PI staining based flow cytometry analysis (reference value: 1.60%); assay type: functional
MDA-MB-231 [8] = experiment: Induction of apoptosis in human MDA-MB-231 cells harboring wild-type BRCA assessed as late apoptotic cells at 15 uM incubated for 48 hrs in presence of Olaparib by Annexin V-FITC/PI staining based flow cytometry analysis (reference value: 2.38%); assay type: functional
MDA-MB-231 [9] = experiment: Induction of apoptosis in human MDA-MB-231 cells harboring wild-type BRCA assessed as necrotic cells at 15 uM incubated for 48 hrs in presence of Olaparib by Annexin V-FITC/PI staining based flow cytometry analysis (reference value: 1.68%); assay type: functional
MDA-MB-436 = experiment: cells; settings: Homo sapiens
MDA-MB-231 [10] = experiment: cells; settings: Homo sapiens
[11] = biological target: Poly [ADP-ribose] polymerase 1 (Homo sapiens, UniProt P09874); experiment: Inhibition of PARP1 (unknown origin)
[12] = biological target: Nicotinamide phosphoribosyltransferase (Homo sapiens, UniProt P43490); experiment: Inhibition of NAMPT (unknown origin)
MDA-MB-231 [13] = experiment: Induction of DNA damage in human MDA-MB-231 cells assessed as increase in gammaH2AX levels at 5 to 10 uM incubated for 48 hrs by DAPI staining based Immunofluorescence analysis; assay type: functional, cell-based; settings: dose 5-10 µM
MDA-MB-231 [14] = experiment: Induction of apoptosis in human MDA-MB-231 cells harboring wild-type BRCA assessed as viable cells at 10 uM incubated for 48 hrs by Annexin V-FITC/PI staining based flow cytometry analysis (reference value: 94.3%); assay type: functional; settings: read-out: Activity
MDA-MB-231 [15] = experiment: Induction of apoptosis in human MDA-MB-231 cells harboring wild-type BRCA assessed as early apoptotic cells at 10 uM incubated for 48 hrs by Annexin V-FITC/PI staining based flow cytometry analysis (reference value: 1.60%); assay type: functional
MDA-MB-231 [16] = experiment: Induction of apoptosis in human MDA-MB-231 cells harboring wild-type BRCA assessed as late apoptotic cells at 10 uM incubated for 48 hrs by Annexin V-FITC/PI staining based flow cytometry analysis (reference value: 2.38%); assay type: functional
MDA-MB-231 [17] = experiment: Induction of apoptosis in human MDA-MB-231 cells harboring wild-type BRCA assessed as necrotic cells at 10 uM incubated for 48 hrs by Annexin V-FITC/PI staining based flow cytometry analysis (reference value: 1.68%); assay type: functional
MDA-MB-231 [18] = experiment: Induction of apoptosis in human MDA-MB-231 cells harboring wild-type BRCA assessed as viable cells at 5 uM incubated for 48 hrs by Annexin V-FITC/PI staining based flow cytometry analysis (reference value: 94.3%); assay type: functional; settings: read-out: Activity
MDA-MB-231 [19] = experiment: Induction of apoptosis in human MDA-MB-231 cells harboring wild-type BRCA assessed as early apoptotic cells at 5 uM incubated for 48 hrs by Annexin V-FITC/PI staining based flow cytometry analysis (reference value: 1.60%); assay type: functional
MDA-MB-231 [20] = experiment: Induction of apoptosis in human MDA-MB-231 cells harboring wild-type BRCA assessed as late apoptotic cells at 5 uM incubated for 48 hrs by Annexin V-FITC/PI staining based flow cytometry analysis (reference value: 2.38%); assay type: functional
MDA-MB-231 [21] = experiment: Induction of apoptosis in human MDA-MB-231 cells harboring wild-type BRCA assessed as necrotic cells at 5 uM incubated for 48 hrs by Annexin V-FITC/PI staining based flow cytometry analysis (reference value: 1.68%); assay type: functional
MDA-MB-231 [22] = experiment: Downregulation of BRCA1 level in human MDA-MB-231 cells at 5 to 10 uM by Western blot analysis; assay type: functional, cell-based; settings: dose 5-10 µM
MDA-MB-231 [23] = experiment: Downregulation of Rad51 level in human MDA-MB-231 cells at 5 to 10 uM by Western blot analysis; assay type: functional, cell-based; settings: dose 5-10 µM
MDA-MB-231 [24] = experiment: Induction of apoptosis in human MDA-MB-231 cells harboring wild-type BRCA incubated for 48 hrs by Annexin V-FITC/PI staining based flow cytometry analysis; assay type: functional, cell-based; settings: dose 5-10 µM
MDA-MB-231 [25] = experiment: Antimigratory activity against human MDA-MB-231 cells at 10 uM incubated for 48 hrs by wound healing assay; assay type: functional, cell-based
MDA-MB-231 [26] = experiment: Antimigratory activity against human MDA-MB-231 cells at 10 uM incubated for 48 hrs by Transwell migration assay; assay type: functional, cell-based
MDA-MB-231 [27] = experiment: Induction of apoptosis in human MDA-MB-231 cells harboring wild-type BRCA assessed as viable cells at 10 uM incubated for 48 hrs in presence of GNE-617 by Annexin V-FITC/PI staining based flow cytometry analysis (reference value: 94.3%); assay type: functional; settings: read-out: Activity
MDA-MB-231 [28] = experiment: Induction of apoptosis in human MDA-MB-231 cells harboring wild-type BRCA assessed as early apoptotic cells at 10 uM incubated for 48 hrs in presence of GNE-617 by Annexin V-FITC/PI staining based flow cytometry analysis (reference value: 1.60%); assay type: functional
MDA-MB-231 [29] = experiment: Induction of apoptosis in human MDA-MB-231 cells harboring wild-type BRCA assessed as late apoptotic cells at 10 uM incubated for 48 hrs in presence of GNE-617 by Annexin V-FITC/PI staining based flow cytometry analysis (reference value: 2.38%); assay type: functional
MDA-MB-231 [30] = experiment: Induction of apoptosis in human MDA-MB-231 cells harboring wild-type BRCA assessed as necrotic cells at 10 uM incubated for 48 hrs in presence of GNE-617 by Annexin V-FITC/PI staining based flow cytometry analysis (reference value: 1.68%); assay type: functional

Sequence of Nicotinamide phosphoribosyltransferase (P43490 whole entry): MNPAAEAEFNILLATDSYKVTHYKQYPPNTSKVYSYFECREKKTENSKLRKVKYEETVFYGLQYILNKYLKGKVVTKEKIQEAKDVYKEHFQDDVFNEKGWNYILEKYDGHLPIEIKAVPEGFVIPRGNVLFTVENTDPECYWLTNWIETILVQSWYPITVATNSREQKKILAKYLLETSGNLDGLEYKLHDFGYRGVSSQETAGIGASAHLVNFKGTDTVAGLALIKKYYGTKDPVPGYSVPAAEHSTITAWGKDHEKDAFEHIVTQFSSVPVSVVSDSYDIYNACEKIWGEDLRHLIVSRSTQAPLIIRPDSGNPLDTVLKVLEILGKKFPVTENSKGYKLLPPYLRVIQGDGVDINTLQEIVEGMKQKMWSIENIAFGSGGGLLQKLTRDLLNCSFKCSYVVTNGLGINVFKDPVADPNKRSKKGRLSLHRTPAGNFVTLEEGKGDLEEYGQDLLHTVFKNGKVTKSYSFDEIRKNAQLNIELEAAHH
Sequence of Poly [ADP-ribose] polymerase 1 (P09874 whole entry): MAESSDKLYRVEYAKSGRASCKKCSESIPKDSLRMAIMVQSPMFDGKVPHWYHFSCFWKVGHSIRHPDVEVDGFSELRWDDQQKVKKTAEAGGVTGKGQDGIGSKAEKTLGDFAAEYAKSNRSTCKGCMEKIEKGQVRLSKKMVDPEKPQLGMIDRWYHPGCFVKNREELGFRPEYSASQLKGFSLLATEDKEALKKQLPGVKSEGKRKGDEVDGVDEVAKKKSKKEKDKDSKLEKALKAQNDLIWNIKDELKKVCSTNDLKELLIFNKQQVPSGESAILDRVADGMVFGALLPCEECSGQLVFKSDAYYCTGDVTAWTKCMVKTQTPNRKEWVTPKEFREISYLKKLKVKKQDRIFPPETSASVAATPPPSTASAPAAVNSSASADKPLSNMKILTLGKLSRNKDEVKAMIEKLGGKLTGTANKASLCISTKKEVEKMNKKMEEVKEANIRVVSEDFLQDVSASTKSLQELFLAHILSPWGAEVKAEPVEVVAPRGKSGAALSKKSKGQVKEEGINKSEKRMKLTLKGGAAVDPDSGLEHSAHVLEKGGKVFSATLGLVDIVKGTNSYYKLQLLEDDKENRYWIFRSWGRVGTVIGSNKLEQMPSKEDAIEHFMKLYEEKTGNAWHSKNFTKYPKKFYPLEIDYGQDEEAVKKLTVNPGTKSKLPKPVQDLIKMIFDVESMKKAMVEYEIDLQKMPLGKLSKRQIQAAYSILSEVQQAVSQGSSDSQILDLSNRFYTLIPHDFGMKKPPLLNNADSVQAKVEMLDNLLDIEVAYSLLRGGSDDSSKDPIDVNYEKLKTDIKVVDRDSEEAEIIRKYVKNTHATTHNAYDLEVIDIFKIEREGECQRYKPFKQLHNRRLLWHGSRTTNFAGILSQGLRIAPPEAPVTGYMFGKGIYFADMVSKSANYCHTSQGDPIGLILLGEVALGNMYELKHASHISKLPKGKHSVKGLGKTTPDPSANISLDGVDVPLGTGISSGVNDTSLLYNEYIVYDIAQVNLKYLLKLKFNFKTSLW

SMILES: O=C(NCc1ccc(S(=O)(=O)c2cc(F)cc(F)c2)cc1)c1ccc2nccn2c1
CI (MDA-MB-231 [1]): <1
viability at 15 µM (MDA-MB-231 [2]): 82.7%
Activity (MDA-MB-231 [3]): 17%
Activity (MDA-MB-231 [4]): 0.19%
Activity (MDA-MB-231 [5]): 0.023%
viability at 15 µM (MDA-MB-231 [6]): 64%
Activity (MDA-MB-231 [7]): 34.6%
Activity (MDA-MB-231 [8]): 1.38%
Activity (MDA-MB-231 [9]): 0.023%
pIC50 (MDA-MB-436): 4.47
pIC50 (MDA-MB-231 [10]): 4.29

SMILES: O=C(/C=C/c1cccnc1)NCCN1CCN(C(=O)c2cc(Cc3n[nH]c(=O)c4ccccc34)ccc2F)CC1
pIC50 [12]: 7.03

SMILES: O=C(NCCCCCN1CCN(C(=O)c2cc(Cc3n[nH]c(=O)c4ccccc34)ccc2F)CC1)c1ccc2nccn2c1
pIC50 [11]: 8.74

SMILES: O=C(c1cc(Cc2n[nH]c(=O)c3ccccc23)ccc1F)N1CCN(C(=O)C2CC2)CC1 [OLAPARIB]
viability at 10 µM (MDA-MB-231 [14]): 87.5%
Activity (MDA-MB-231 [15]): 12.4%
Activity (MDA-MB-231 [16]): 0.041%
Activity (MDA-MB-231 [17]): 0.006%
viability at 10 µM (MDA-MB-231 [27]): 64%
Activity (MDA-MB-231 [28]): 34.6%
Activity (MDA-MB-231 [29]): 1.38%
Activity (MDA-MB-231 [30]): 0.023%
pIC50 (MDA-MB-436): 5.93
pIC50 (MDA-MB-231 [10]): 4.53

The remaining compounds from weak to strong by pIC50 [11], led by results:

pIC50 [11]: 8.80
pIC50 [12]: 7.85
pIC50 (MDA-MB-436): 5.95
pIC50 (MDA-MB-231 [10]): 5.60
SMILES: O=C(/C=C/c1cccnc1)NCCCCCN1CCN(C(=O)c2cc(Cc3n[nH]c(=O)c4ccccc34)ccc2F)CC1

pIC50 [11]: 9.00
pIC50 [12]: 7.14
SMILES: O=C(NCCCCN1CCN(C(=O)c2cc(Cc3n[nH]c(=O)c4ccccc34)ccc2F)CC1)c1ccc2nccn2c1

pIC50 [11]: 9.00
pIC50 [12]: 6.46
SMILES: O=C(/C=C/c1cccnc1)NCCCCCCN1CCN(C(=O)c2cc(Cc3n[nH]c(=O)c4ccccc34)ccc2F)CC1

pIC50 [11]: 9.05
pIC50 [12]: 8.00
pIC50 (MDA-MB-436): 5.84
pIC50 (MDA-MB-231 [10]): 5.38
SMILES: O=C(/C=C/c1cccnc1)NCCCCN1CCN(C(=O)c2cc(Cc3n[nH]c(=O)c4ccccc34)ccc2F)CC1

pIC50 [11]: 9.10
pIC50 [12]: 7.74
pIC50 (MDA-MB-436): 6.02
pIC50 (MDA-MB-231 [10]): 6.15
SMILES: O=C(NCCCCCCN1CCN(C(=O)c2cc(Cc3n[nH]c(=O)c4ccccc34)ccc2F)CC1)c1ccc2nccn2c1
Activity (MDA-MB-231 [13]): Active
viability at 10 µM (MDA-MB-231 [14]): 49.3%
Activity (MDA-MB-231 [15]): 44.2%
Activity (MDA-MB-231 [16]): 6.09%
Activity (MDA-MB-231 [17]): 0.41%
viability at 5 µM (MDA-MB-231 [18]): 68.3%
Activity (MDA-MB-231 [19]): 29.8%
Activity (MDA-MB-231 [20]): 1.84%
Activity (MDA-MB-231 [21]): 0.031%
Activity (MDA-MB-231 [22]): Active
Activity (MDA-MB-231 [23]): Active
Activity (MDA-MB-231 [24]): Dose-dependent-effect
Activity (MDA-MB-231 [25]): Active
Activity (MDA-MB-231 [26]): Active

pIC50 [11]: 9.22
pIC50 [12]: 7.17
SMILES: O=C(/C=C/c1cccnc1)NCCCN1CCN(C(=O)c2cc(Cc3n[nH]c(=O)c4ccccc34)ccc2F)CC1
